Results: patent US12071477B2, “Anti-folate receptor alpha antibody conjugated with hemiasterlins” (SUTRO BIOPHARMA, INC., priority 2017, dated 2024)
Square brackets hold non-standard residues; d marks the D form. Peptide text beside a SMILES is read from it. * marks the point of attachment. Dolaproine = CO[C@@H]([C@@H]1CCCN1)[C@@H](C)C(=O)O; Dil = CC[C@H](C)[C@H](NC)[C@@H](CC(=O)O)OC; X1 = C[C@@H](N*)[C@@H](O)c1ccccc1; NMeV = CN[C@H](C(=O)O)C(C)C

Assays:
MES-SA cells = experiment: Free drug cell killing on parental MES-SA cells; type: cell-based; settings: Homo sapiens, MEA-SA, No GF120918
From the text: (§1) To evaluate if free drug (I) is specifically a substrate of P-glycoprotein (PgP), which is responsible for cisplatin-resistance in some of the ovarian cancer cell lines (Stordal et al. 2012. PLoS One 7(7)), the free drug cell killing activities were investigated on PgP overexpressing MES-SA/MX2 cell line and the parental MES-SA cells. The cell killing activity of free drug (I), free drug (II) and a control free drug (MMAE, designated “III”) on the PgP-overexpressing MES-SA/MX2 cells were reduced by different levels compared to their activity on parental MES-SA cells. The MES-SA/MX2 cells were also treated with PgP inhibitor GF120918 (5 μM) to further investigate if the observed cell killing reduction is contributed by the presence of PgP on the cell surface.

[1] = test system: MES-SA/MX2 cells (P-glycoprotein); experiment: Free drug cell killing on PgP overexpressing MES-SA/MX2 cells with or without PgP inhibitor GF120918; type: cell-based
From the text: as §1

[2] = Body weight change in rats given free drugs; type: in vivo, rat; settings: free drug (I): two doses (0.4, 1 mg/kg); free drug (II): 0.4 mg/kg
[3] = test system: cell lines tested (Igrov1, A549 and others); experiment: In vitro cytotoxic activity of free drugs, various cell lines; type: cell-based; settings: in vitro cytotoxicity studies
MC38-hFolRα tumors = experiment: MC38-hFolRα tumor model, combination with Avelumab; type: in vivo; settings: ADC Molecule 4 10 or 15 mg/kg once IV; Avelumab q3dx3
From the text: Results are illustrated in FIGS. 24 and 25.

[4] = Pharmacokinetic profile of free drugs in Sprague-Dawley rats; type: in vivo, rat
Method: To assess the pharmacokinetic profile of free drug (I), female Sprague-Dawley rats (mean body weight 250 g) were given either a 0.4 mg/kg or 1 mg/kg dose by IV bolus administration (N═three animal per dose level) via an indwelling jugular vein catheter. Blood samples were collected at […], 1, 2, 8, 24, 32, 48, and 72 hour post-dose. Levels of free drug (I) and (II) were measured by LC-MS/MS and non-compartmental pharmacokinetic analysis was conducted using Phoenix WinNonlin Version 6.4 (Pharsight Corporation). The PK of free drug (I) could not be estimated due to the fact that concentrations of (I) increased from 2 to 8 hours and were undetectable thereafter.

[5] = test system: FOLR1-positive Igrov1 cells; experiment: Secondary antibody cell killing assay (anti-human Fc nanobody-hemiasterlin) on Igrov1 cells; type: cell-based; settings: humanized 6D1 (2060) antibodies
Method: The internalization of the antibodies was evaluated by a secondary antibody cell killing assay on target positive cells. FOLR1-positive KB cells were obtained from ATCC, and FOLR1-positive Igrov1 cells were obtained from NIH. The cells were maintained in Ham's F-12: high glucose DMEM (50:50) (Corning, Cellgro-Mediatech) supplemented with 10% heat-inactivated fetal bovine serum (Corning, Cellgro-Mediatech, Manassas, Virginia), 1% Penicillin/Streptomycin (Corning, Cellgro-Mediatech, Manassas, Virginia) and 2 mmol/L-glutamax (Thermo Fisher Scientific, Waltham, Massachusetts). Adherent cells were washed twice with calcium and magnesium-free Hanks Balanced Salt Solution (HBSS), harvested with HYQ® TASE™ (Hyclone; Thermo Fisher Scientific, Waltham, Massachusetts) and counted by the Vi-CELL Cell Viability Analyzers (Beckman Coulter, Indianapolis, Indiana). A total of 625 cells were seeded in each well of a 384-well flat bottom white polystyrene plate. Lead antibodies were formulated at 4-fold starting concentration in the cell culture medium and filtered through Multi ScreenHTS 96-Well Filter Plates (Millipore; Billerica, Massachusetts). […] Assay plates were cultured at 37° C. in a CO2 incubator for 120 hrs before assay. For cell viability measurement, 30 μL of Cell Titer-Glog reagent (Promega Corp. Madison, WI) was added into each well, and plates were processed as per product instructions. Relative luminescence was measured on an ENVISION® plate reader (Perkin-Elmer; Waltham, MA). Relative luminescence readings were converted to percent viability using untreated cells as controls. Data was fitted with nonlinear regression analysis, using a log(inhibitor) vs. response-variable slope, 4 parameter fit with GraphPad Prism (GraphPad v 5.0, Software; San Diego, California). Data was expressed as relative cell viability (ATP content) % vs. dose of antibody.

human FOLR1-H1S = target: T1, human FOLR1-H1S (Homo sapiens, UniProt P15328); experiment: Biacore affinity and kinetic binding analysis; settings: humanized 6D1 (2060) antibodies
T1 construct: His (printed 'H1S', read as a misprint of HIS)
T1 sequence (P15328 25-234 limits assumed): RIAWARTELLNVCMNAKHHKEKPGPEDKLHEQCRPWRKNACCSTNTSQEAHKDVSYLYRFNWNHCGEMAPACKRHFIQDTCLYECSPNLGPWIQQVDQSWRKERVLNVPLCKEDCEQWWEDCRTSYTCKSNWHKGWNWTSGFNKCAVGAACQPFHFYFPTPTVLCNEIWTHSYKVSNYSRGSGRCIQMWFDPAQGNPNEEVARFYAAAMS
Method: Anti-Fc polyclonal antibodies were immobilized onto a CM5 chip (GE Life Sciences) using amine coupling chemistry (from Amine Coupling Kit, GE Life Sciences). The immobilization steps were carried out at a flow rate of 25 μL/min in 1×HBS-EP+buffer (GE Life Sciences; 10× Stock diluted before use). The sensor surfaces were activated for 7 min with a mixture of N-hydroxysuccinimide (NHS, 0.05 M) and 1-ethyl-3-(3-dimethylaminopropyl)-carbodiimide (EDC, 0.2 M). The anti-Fc polyclonal antibodies were injected over all 4 flow cells at a concentration of 25 μg/mL in 10 mM sodium acetate, pH 4.5, for 7 min. Ethanolamine (1 M, pH 8.5) was injected for 7 min to block any remaining activated groups. An average of 12,000 response units (RU) of capture antibody was immobilized on each flow cell.
Off-rate and kinetic binding experiments were performed at 25° C. using 1×HBS-EP+ buffer. Test and control antibodies were injected over the anti-Fc surface at concentrations of 5-10 μg/mL for 12 seconds at a flow rate of 10 μL/min on flow cells 2, 3 and 4, followed by a buffer wash for 30 seconds at the same flow rate. Kinetic characterization of antibody samples was carried out with a single concentration of antigen (for off-rate ranking) or a 1:2 dilution series of antigen (for kinetic characterization) and 1 injection of 0 nM antigen. […] Between each ligand capture and analyte binding cycle, regeneration was carried out using 2 injections of 10 mM glycine pH 2.0 for 30 seconds at 30 μL/min, followed by a 30 second buffer wash step.
The data were fit with the Biacore T200 Evaluation software, using a 1:1 Langmuir binding model. KD (affinity, nM) was determined as a ratio of the kinetic rate constants calculated from the fits of the association and dissociation phases.

[6] = MEA-SA/MX2, GF120918 (5 μM PgP inhibitor)

Question: For `CC[C@H](C)[C@@H]([C@@H](CC(=O)N1CCC[C@H]1[C@H](OC)[C@@H](C)C(=O)N[C@H](C)[C@@H](O)c1ccccc1)OC)N(C)C(=O)[C@@H](NC(=O)[C@@H](NC)C(C)C)C(C)C` [free drug (III), monomethyl auristatin E] (H-[NMeV]V[Dil][Dolaproine]-X1; N-terminus and C-terminus assumed), which EC50 (MES-SA cells) is on record?
Answer: The EC50 was 0.75 nM.

Question: What about the EC50 [1, 6] of the same molecule?
Answer: Its EC50 is 1 nM.

Question: What about the EC50 ([1]; MEA-SA/MX2, No GF120918) of the same molecule?
Answer: Its EC50 is 111 nM.

Question: Which “effect on body weight” value [2] does the source give for `COc1cc2cc(c1Cl)N(C)C(=O)C[C@H](OC(=O)[C@H](C)N(C)C(=O)CCC(C)(C)S)[C@]1(C)O[C@H]1[C@H](C)[C@@H]1C[C@@](O)(NC(=O)O1)[C@H](OC)/C=C/C=C(/C)C2` [free drug (II)] here?
Answer: Its value is “progressive body weight loss”.

Question: And the “cytotoxic activity of released free drugs, comparison” value [3]?
Answer: Its value is “comparable cytotoxic activity”.

Question: And the EC50 [1, 6]?
Answer: The EC50 was 1.7 nM.

Question: And the EC50 ([1]; MEA-SA/MX2, No GF120918)?
Answer: Its EC50 is 28 nM.

Question: And the Span ([1]; MEA-SA/MX2, No GF120918)?
Answer: Its Span is 100%.

Question: With “Avelumab: PD-L1 inhibitor Avelumab (clinical grade) [reference compound]” as the molecule, how does the initial tumor response (MC38-hFolRα tumors) read?
Answer: Its initial tumor response is “tumor stasis until approximately day 7”.

Question: Which results are given for `CN[C@H](C(=O)N[C@H](C(=O)N(C)[C@H](/C=C(\C)C(=O)O)C(C)C)C(C)(C)C)C(C)(C)c1cccc(N)c1` [free drug (I)]?
Answer: plasma level post dose ([4]; 0.4 or 1 mg/kg IV bolus): undetectable at 24 hours post dose; PK of free drug (I) in rat vs. free drug (II) ([4]; rat): Free drug (I) has faster clearance; effect on body weight [2]: did not have an effect on the body weight; cytotoxic activity of released free drugs, comparison [3]: comparable cytotoxic activity; EC50 [1, 6]: 6.4 nM; EC50 ([1]; MEA-SA/MX2, No GF120918): 50 nM; Span ([1]; MEA-SA/MX2, No GF120918): 100%

B1: SRP2060-A06 (antibody, V domains shown)
VH: EVQLLESGGGLVQPGGSLRLSCAFSGFSLSTFGMGVGWVRQAPGKGLEWVGHIWWDDDKYYYPALKGRFTISKDNSKNTVYLQMNSLRAEDTAVYYCGRNHFPHYYGSSHWYFDVWGQGTTVTVSS
VL: DIQMTQSPSTLSASVGDRVTITCKASQDINSYLSWYQQKPGKAPKLLIYRANRLVDGVPSRFSGSGSGTEFTLTISSLQPDDFATYYCLQYDEFPYTFGGGTKVEIK
modifications: drug conjugate; Synthetic SRP2060-A06, VH; Synthetic H6D1-LC5, VL
Question: For B1, which “Igrov 2° Antibody Cell Killing, Nb-SC239 span” value (“Igrov 2° Antibody Cell Killing” for short) [5] is on record?
Answer: The value was 66%.

B2: SRP2060-E05: affinity-matured humanized 6D1 antibody, VH SEQ ID NO 364, VL H6D1-LC4 (antibody, V domains shown)
VH: EVQLLESGGGLVQPGGSLRLSCAFSGFSLSTFGMGVGWVRQAPGKGLEWVSHIWWDDDKYYHPALKGRFTVSKDNSKNTVYLQMNSLRAEDTAVYYCGRNHFPHYYGSSHWYFNVWGQGTTVTVSS
VL: EIVMTQSPATLSLSPGERATLSCKASQDINSYLSWYQQKPGQAPRLLIYRANRLVDGIPARFSGSGSGTDYTLTISSLEPEDFAVYYCLQYDEFPYTFGGGTKVEIK
modifications: drug conjugate; Synthetic SRP2060-E05, VH; Synthetic H6D1-LC4, VL
Question: For B2, which “Igrov 2° Antibody Cell Killing” value [5] is on record?
Answer: Its value is 71%.

Question: And the Biacore kinetics ka (human FOLR1-H1S)?
Answer: Its Biacore kinetics ka is 541000 M⁻¹ s⁻¹.

Question: And the Biacore kinetics kd (human FOLR1-H1S)?
Answer: The Biacore kinetics kd was 0.00158 s⁻¹.

B3: SRP2060-E10: affinity-matured humanized 6D1 antibody, VH SEQ ID NO 363, VL H6D1-LC4 (antibody, V domains shown)
VH: EVQLLESGGGLVQPGGSLRLSCAFSGFSLSTFGMGVGWVRQAPGKGLEWVSHIWWDDDKYYHPALKGRFTISKDNSKNTVYLQMNSLRAEDTAVYYCGRNHFPHYYGSSHWYFNVWGQGTTVTVSS
VL: EIVMTQSPATLSLSPGERATLSCKASQDINSYLSWYQQKPGQAPRLLIYRANRLVDGIPARFSGSGSGTDYTLTISSLEPEDFAVYYCLQYDEFPYTFGGGTKVEIK
modifications: drug conjugate; Synthetic SRP2060-E10, VH; Synthetic H6D1-LC4, VL
Question: For B3, which “Igrov 2° Antibody Cell Killing” value [5] is on record?
Answer: The value was 68%.

Question: What about the Biacore kinetics ka (human FOLR1-H1S) of the same molecule?
Answer: Its Biacore kinetics ka is 582000 M⁻¹ s⁻¹.

Question: And the Biacore kinetics kd (human FOLR1-H1S)?
Answer: Its Biacore kinetics kd is 0.0012 s⁻¹.

B4: SRP2060-B01 (antibody, V domains shown)
VH: EVQLLESGGGLVQPGGSLRLSCALSGFSLSTFGMGVGWVRQATGKGLEWVSHIWWDDDKYYHPALKGRFTISKDNSKNTVHLQMNSLRAEDTAVYYCGRNHFPHYYGSSHWYFNVWGQGTTVTVSS
VL: DIQMTQSPSTLSASVGDRVTITCKASQDINSYLSWYQQKPGKAPKLLIYRANRLVDGVPSRFSGSGSGTEFTLTISSLQPDDFATYYCLQYDEFPYTFGGGTKVEIK
modifications: drug conjugate; Synthetic SRP2060-B01, VH; Synthetic H6D1-LC5, VL
Question: With B4 as the molecule, how does the “Igrov 2° Antibody Cell Killing” value [5] read?
Answer: Its value is 76%.
